Measurements taken from article PMC7982521, “Studies on the Changes of Pharmacokinetics Behaviors of Phytochemicals and the Influence on Endogenous Metabolites After the Combination of Radix Bupleuri and Radix Paeoniae Alba Based on Multi-Component Pharmacokinetics and Metabolomics” (Frontiers in Pharmacology, 2021).
Read-outs that look alike come from different tables or passages of the source.

Assay: Multi-component pharmacokinetics in rat plasma after oral administration of RB, RPA or RB-RPA extracts (UPLC-HRMS, non-compartmental analysis)
Type: in vivo, Sprague-Dawley rats
Settings: for AUC0-t / AUC0-∞ / Cmax / t1/2 / tmax / AUC(0-inf) / half-life: rat plasma, mean ± SD, n = 7; for change of AUC0-∞ after combination: oral RB-RPA group vs single herbal group (RB or RPA)
Procedure: (Beijing, China, No. SCXK2018-0011). […] All rats were free to access the water and food until 12 h before the experiment. The animal study was reviewed and approved by the Experimental Animal Ethical Committee of Modern Research Center for Traditional Chinese Medicine, Shanxi University (animal ethic approval number: SXULL2018018), and all experimental procedures were carried out in accordance with the NIH Guide for the Care and Use of Laboratory Animals. After one week of adaptation, twenty-one rats were divided into three groups randomly, with seven rats in each group: 1) RPA group, were oral administration of Radix Paeoniae Alba extract (45 g-herb/kg); 2) RB group, were oral administration of Radix Bupleuri extract (45 g-herb/kg); 3) RB-RPA group, were oral administration of powder mixture of Radix Bupleuri and Radix Paeoniae Alba extracts (containing 45 g-herb/kg Radix Bupleuri and 45 g-herb/kg Radix Paeoniae Alba). […] Each group received intragastric administration with a volume of 10 ml/kg (rat body weight). […] All rats were free to access the water during the experiment. The blood samples at each time point were collected from seven rats. The blood samples were centrifuged at 4,000 rpm for 10 min and frozen at -80°C until analysis. Using a Thermo-Fisher Dionex UltiMate 3000 UHPLC system coupled with a Q Exactive Orbitrap-MS (Thermo-Fisher, United States) and Xcalibur workstation (Thermo-Fisher Scientific Inc.,Waltham, MA, United States) to acquire UPLC-HRMS raw data. Chromatographic separation of herb extracts and plasma samples was performed on an Acquity UPLC HSS T3 column (2.1 mm × 100 mm, 1.8 μm) maintained at 37°C. The flow rate was 0.2 ml/min and the injection volume was 5 μL. […] Mass spectrometry detection conditions were set as follows: the MS data were acquired under positive and negative ionization modes via heated electrospray ionization (HESI) source. […] The Q Exactive Orbitrap-MS has a fast positive and negative ion switching function, which could switch between positive-negative ion modes during the analysis of the same sample. So, we applied the method of switching ion modes in the detection process to quantify all analytes better. […] UPLC/MS/MS calibration and quantitation data were processed with Xcalibur workstation (Thermo-Fisher Scientific Inc., Waltham, MA, United States). For the eight components with standard reference, calculating their concentrations from the standard curves. For the other 30 components without standard reference, their concentrations were analyzed following the regression equations of homologous compounds ([Qiao et al., 2012]): paeoniflorin for P1 and M1 to M3; methylgallate for M4 to M10; saikosaponin […] and […]; saikosaponin […]; saikosaponin […]; saikosaponin B2 for P11 and M25 to […].

[1] = oral RB single extract 45 g-herb/kg
[2] = oral RB-RPA mixed extracts (45 g-herb/kg RB + 45 g-herb/kg RPA)
[3] = oral administration of mixed extracts RB-RPA
[4] = oral administration of single extract RPA
[5] = male, Sprague-Dawley, rat, plasma, po, 45 g/kg, oral administration of mixed extracts RB-RPA
[6] = male, Sprague-Dawley, rat, plasma, po, 45 g/kg, oral administration of single extract RPA

| Cmax [2] | AUC0-t [3] | AUC0-∞ [3] | Cmax [3] | t1/2 [3] | tmax [3] | AUC0-t [4] | AUC0-∞ [4] | Cmax [4] | t1/2 [4] | tmax [4] | SMILES | AUC0-t [1] | AUC0-∞ [1] | Cmax [1] | t1/2 [1] | tmax [1] | AUC0-t [2] | AUC0-∞ [2] | t1/2 [2] | tmax [2] | other results |
| --- | --- | --- | --- | --- | --- | --- | --- | --- | --- | --- | --- | --- | --- | --- | --- | --- | --- | --- | --- | --- | --- |
| 27.55 ± 9.89 ng/mL | – | – | – | – | – | – | – | – | – | – | CC(=O)OC[C@H]1O[C@@H](O[C@H]2[C@@H](O)[C@@H](C)O[C@@H](O[C@H]3CC[C@@]4(C)[C@@H](CC[C@]5(C)[C@@H]4C=CC46OCC7(CCC(C)(C)C[C@H]74)[C@@H](O)C[C@]65C)[C@]3(C)CO)[C@@H]2O)[C@H](O)[C@@H](O)[C@@H]1O (stereo partly drawn) [Acetyl-saikosaponin A] | 51.16 ± 11.83 ng·h/mL | 57.19 ± 10.74 ng·h/mL | 29.39 ± 11.24 ng/mL | 3.50 ± 0.74 h | 0.46 ± 0.19 h | 62.08 ± 16.91 ng·h/mL | 67.17 ± 16.28 ng·h/mL | 4.38 ± 1.27 h | 0.54 ± 0.19 h | – |
| 365.94 ± 41.75 ng/mL | 1834.06 ± 191.89 ng·h/mL | 1849.80 ± 396.92 ng·h/mL | 365.94 ± 41.75 ng/mL | 3.46 ± 0.56 h | 0.71 ± 0.25 h | 1202.69 ± 302.31 ng·h/mL | 1210.33 ± 303.04 ng·h/mL | 271.50 ± 63.29 ng/mL | 3.19 ± 0.58 h | 1.25 ± 0.89 h | C[C@]12C[C@@H](O)[C@@H]3C[C@@]1(O[C@@H]1O[C@H](CO)[C@@H](O)[C@H](O)[C@H]1O)[C@@]3(COC(=O)c1ccccc1)C(=O)O2 [Albiflorin] | – | – | – | – | – | – | – | – | – | Cmax (oral RPA single extract 45 g-herb/kg): 271.50 ± 63.29 ng/mL; change of AUC0-∞ after combination (rat): significantly increased |
| – | 27.39 ± 15.84 ng·h/mL | 28.66 ± 16.13 ng·h/mL | 10.12 ± 5.32 ng/mL | 2.17 ± 0.95 h | 0.58 ± 0.13 h | 18.66 ± 9.99 ng·h/mL | 20.34 ± 9.44 ng·h/mL | 8.76 ± 4.90 ng/mL | 2.72 ± 1.32 h | 0.75 ± 0.16 h | C[C@@]12C[C@@]3(O)O[C@@H](O1)[C@]1(CO)[C@H]3C[C@@]12O[C@@H]1O[C@H](CO)[C@@H](O)[C@H](O)[C@H]1O [Desbenzoylpaeoniflorin] | – | – | – | – | – | – | – | – | – | – |
| – | – | – | – | – | – | – | – | – | – | – | COC(=O)c1cc(O)c(O)c(O)c1 [Methyl gallate] | – | – | – | – | – | – | – | – | – | AUC(0-inf) [5]: 213 ± 40.5 ng·h/mL; half-life [5]: 4.77 ± 3.32 h; AUC0-t (male, Sprague-Dawley, rat, plasma, po, 45 g/kg, oral administration of mixed extracts RB-RPA, read-out: AUC0-t): 187 ± 42.4 ng·h/mL; Cmax (male, Sprague-Dawley, rat, plasma, po, 45 g/kg, oral administration of mixed extracts RB-RPA, read-out: Cmax): 57.6 ± 7.34 ng/mL; tmax (male, Sprague-Dawley, rat, plasma, po, 45 g/kg, oral administration of mixed extracts RB-RPA, read-out: tmax): 0.5 ± 0.16 h; AUC(0-inf) [6]: 144 ± 59.1 ng·h/mL; half-life [6]: 4.11 ± 2.31 h; AUC0-t (male, Sprague-Dawley, rat, plasma, po, 45 g/kg, oral administration of single extract RPA, read-out: AUC0-t): 141 ± 61.3 ng·h/mL; Cmax (male, Sprague-Dawley, rat, plasma, po, 45 g/kg, oral administration of single extract RPA, read-out: Cmax): 48.6 ± 9.47 ng/mL; tmax (male, Sprague-Dawley, rat, plasma, po, 45 g/kg, oral administration of single extract RPA, read-out: tmax): 0.58 ± 0.13 h; change of AUC0-∞ after combination (rat): significantly increased |

| SMILES | Cmax [2] | AUC0-t [3] | AUC0-∞ [3] | Cmax [3] | t1/2 [3] | tmax [3] | AUC0-t [4] | AUC0-∞ [4] | Cmax [4] | t1/2 [4] | tmax [4] | AUC0-t [1] | AUC0-∞ [1] | Cmax [1] | t1/2 [1] | tmax [1] | AUC0-t [2] | AUC0-∞ [2] | t1/2 [2] | tmax [2] | other results |
| --- | --- | --- | --- | --- | --- | --- | --- | --- | --- | --- | --- | --- | --- | --- | --- | --- | --- | --- | --- | --- | --- |
| CC(=O)OC[C@H]1O[C@@H](O[C@H]2[C@@H](O)[C@@H](C)O[C@@H](O[C@H]3CC[C@@]4(C)[C@@H](CC[C@]5(C)[C@@H]4C=CC46OCC7(CCC(C)(C)C[C@H]74)[C@H](O)C[C@]65C)[C@]3(C)CO)[C@@H]2O)[C@H](O)[C@@H](O)[C@@H]1O (stereo partly drawn) [Acetyl-saikosaponin D] | 20.31 ± 12.42 ng/mL | – | – | – | – | – | – | – | – | – | – | 23.58 ± 6.77 ng·h/mL | 25.54 ± 7.23 ng·h/mL | 19.20 ± 6.70 ng/mL | 2.68 ± 0.71 h | 0.50 ± 0.27 h | 38.05 ± 21.32 ng·h/mL | 43.25 ± 27.08 ng·h/mL | 4.39 ± 1.55 h | 0.50 ± 0.27 h | – |
